Read-outs that look alike come from different tables or passages of the source.
What was measured:
[1] = test system: G-quadruplex oligonucleotide Fmyc27T (NHE III1 promoter region of c-myc oncogene); test: FRET melting of G-quadruplex oligonucleotide Fmyc27T with ligands; assay type: binding; conditions: for ΔTm (° C.) Fmyc27T/ds26 (° C.): helquat 1 μmol·l^−1, oligonucleotide 0.2 μmol·l^−1, 50-fold excess of double-stranded competitor ds26; for ΔTm (° C.) Fmyc27T: helquat 1 μmol·l^−1, oligonucleotide 0.2 μmol·l^−1, without competitor
Source text: To determine the degree of in vitro interactions of helquats with G-quadruplex(es), the oligonucleotides containing the guanine-rich sequences of human telomere (F21T) and NHE III1 promoter region of c-myc oncogene (Fmyc27T) were used. Both oligonucleotides capable of forming an intramolecular G-quadruplex were end-labeled with suitable fluorophores so as to form donor-acceptor FRET pair (5′-FAM and 3′-TAMRA). If the oligonucleotide is folded into the structure of the G-quadruplex, donor is in close proximity of acceptor and radiationless energy transfer to the acceptor occurs. With increasing temperature of the reaction mixture G-quadruplex structure gradually denatures and thus the donor and acceptor (FAM-TAMRA) drift apart. This leads to an increase in fluorescence of donor (FAM) and a decrease in fluorescence of acceptor (TAMRA).
The result of measurement is the curve of dependence of the intensity of fluorescence of the donor on the temperature. If the G-quadruplex is stabilized by ligand, melting temperature will increase. Melting temperature of G-quadruplex corresponds to the temperature when 50% of the original amount of the folded G-quadruplex is denatured. The measurement outcome is the difference in the melting temperatures (ΔTm) of the G-quadruplex alone and the G-quadruplex stabilized by ligand. In case of Fmyc27T experiments were performed in cacodylate buffer (10 mmol·l^−1, pH=7.2) with KCl (5 mmol·l^−1) and LiCl (95 mmol·l^−1) oligonucleotide and in case of F21T oligonucleotide in cacodylate buffer (10 mmol·l^−1, pH=7.2) with KCl (25 mmol·l^−1) and LiCl (75 mmol·l^−1).
Both oligonucleotides were denatured for 5 minutes at 95° C. and subsequently allowed to cool to room temperature (3 hours) in the switched-off thermoblock. The final oligonucleotide concentration in the reaction mixture was 0.2 μmol·l^−1. Test helquats were present at concentrations of 1 μmol·l^−1. The total reaction volume was 30 μl. The melting temperature of the oligonucleotides alone (without the presence of helquats) under these conditions was 58.1±0.2° C. for F21T and 64.7±0.4° C. for Fmyc27T. For determining the selectivity of binding of helquats to G-quadruplex in comparison with the double-stranded DNA, 50-fold excess of double-stranded DNA ([…] unlabeled competitor ds26 forming a hairpin) is added to the reaction mixture. After the addition to the reaction mixture ds26 competes with labeled oligonucleotide (Fmyc27T or F21T) for ligand binding. […] Melting temperature of oligonucleotides alone in the presence of the competitor is 59.4±0.5° C. for F21T and 66.3° C.±0.6° C. for Fmyc27T.
Fluorescence of FAM donor was measured using real-time PCR apparatus Opticon 2 (excitation 470-505 nm and emission 523-543 nm) in temperature increments of 0.5° C. in the range 25 to 95° C. Evaluation of the sigmoid curves of fluorescence intensity dependent on the temperature were performed in GraphPad Prism 5 (GraphPad Software, Inc., USA). Using nonlinear five parametric regression the inflection point on the curve was calculated that corresponds to the melting temperature (Tm) of the G-quadruplex under the given conditions. The values were obtained from at least three independent measurements.

CCRF-CEM = test: XTT cytotoxicity/proliferation assay, CCRF-CEM; assay type: cell-based; conditions: Homo sapiens, CCRF-CEM
Procedure, shortened: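 CCRF-CEM cells plated at 3000 per well, treated next day for 72 h with helquats over 1-100 μmol·l^−1. Viability by XTT reduction (2 h), absorbance 492 nm with 690 nm reference; IC50 from triplicates, repeated in at least three independent experiments, values above 100 μmol·l^−1 extrapolated.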

[2] = 72 hours of treatment, read-out: IC50 CCRF CEM
[3] = 72 hours, summary of table 9, read-out: concentrations toxic towards CCRF-CEM cells

Row | SMILES | ΔTm (° C.) Fmyc27T/ds26 (° C.) [1] | ΔTm (° C.) Fmyc27T [1] | IC50 (CCRF-CEM; [2]) | IC50 (CCRF-CEM; [3])
1 | O=[N+]([O-])c1cccc2[nH]cc(/C=C/c3cc[n+]4c(c3)-c3c(ccc5c3-c3cccc[n+]3CC5)CC4)c12 (racemic) [LSA-C9-32, (rac)-(E)-2-(2-(4-nitro-1H-indol-3-yl)vinyl)-6,7,10,11-tetrahydrodipyrido[2,1-a:1′,2′-k][2,9]phenanthroline-5,12-diium trifluoromethanesulfonate] | 8.1 °C | 10.4 °C | 11 to 25 µM | < 25 µM
2 | Brc1ccc2[nH]cc(/C=C/c3cc4ccccc4[n+]4c3-c3c(ccc5c3-c3cccc[n+]3CCC5)CCC4)c2c1.O=S(=O)([O-])C(F)(F)F.O=S(=O)([O-])C(F)(F)F [MSC-C9-30, 19-((E)-2-(5-bromo-1H-indol-3-yl)vinyl)-6,7,8,11,12,13-hexahydropyrido[1′″,2′″:1″,2″]azepino[4″,3″:5′,6′]benzo[1′,2′:3,4]azepino[1,2-a]quinoline-5,14-diium trifluoromethanesulfonate] |  |  | ≤ 10 µM | < 25 µM
3 | C(=C\c1cccc2c1oc1ccccc12)/c1cc[n+]2c(c1)-c1c(ccc3c1-c1c4ccccc4cc[n+]1CC3)CC2.O=S(=O)([O-])C(F)(F)F.O=S(=O)([O-])C(F)(F)F [MSB-C13-8, (E)-13-(2-(dibenzo[b,d]furan-4-yl)vinyl)-4,5,8,9-tetrahydroisoquinolino[1,2-a]pyrido[1,2-k][2,9]phenanthroline-3,10-diium trifluoromethanesulfonate] | 7.7 °C | 12.6 °C | 26 to 50 µM | 
4 | Cc1c(C)c2c(c3c1CC[n+]1ccc(/C=C/c4cccc5c4oc4ccccc45)cc1-3)-c1c3ccccc3cc[n+]1CC2 (racemic) [MJA-C13-8, (rac)-(E)-13-(2-(dibenzo[b,d]furan-4-yl)vinyl)-6,7-dimethyl-4,5,8,9-tetrahydroisoquinolino[1,2-a]pyrido[1,2-k][2,9]phenanthroline-3,10-diium trifluoromethanesulfonate] | 4.9 °C | 11.0 °C | 26 to 50 µM | 
5 | C(=C\c1c(-c2ccccc2)[nH]c2ccccc12)/c1cc2ccccc2[n+]2c1-c1c(ccc3c1-c1cccc[n+]1CCC3)CCC2.O=S(=O)([O-])C(F)(F)F.O=S(=O)([O-])C(F)(F)F [MSC-C15-8, 19-((E)-2-(2-phenyl-1H-indol-3-yl)vinyl)-6,7,8,11,12,13-hexahydropyrido[1′″,2′″:1″,2″]azepino[4″,3″:5′,6′]benzo[1′,2′:3,4]azepino[1,2-a]quinoline-5,14-diium trifluoromethanesulfonate] |  |  | 11 to 25 µM | 

— patent publication US9932339B2, “Helquats with heteroaromatic substituents, preparation thereof, and use thereof as G-quadruplex stabilizers” (USTAV ORGANICKE CHEMIE A BIOCHEMIE AV CR, V.V.I., priority 2014, dated 2018)
